Measurements reported in patent US20210261475A1, “UREA-BASED COMPOSITION COMPRISING ELEMENTAL SULPHUR AND METHOD FOR THE MANUFACTURE THEREOF” (YARA INTERNATIONAL ASA, priority 2018, published 2021).
“Also recorded” adds a separate entry of the source.

How the values were obtained:
Format in all cases: physicochemical
[1] = pH of MgSO4 grades
[2] = Volatilization measurements (ammonia release, 2 L diffusion kit, Draeger tube); conditions: YaraVera Amidas product comprising 462 ppm nBTPT, treated with stabilizer (FIG. 1, Table 1)
Excerpt: Through the lid, a […] tube is placed for the measurement of vol % ammonia. The […] tube turns from yellow to bleu/purple when ammonia is absorbed by the tube. The amount of vol % ammonia released can be followed in time. Experiment 1 defines the problem.

[3] = nBTPT stability on YaraVera Amidas (UAS) product during storage, HPLC analysis of nBTPT content
Procedure: For lab scale experiments, 1.2 kg of solid fertilizer material was added to a lab scale drum. […] A residence time of 10 minutes was applied and the rotating speed of the drum was consequently the same in each experiment. […] Before use, the moisture-repellent coating was preheated to 80° C. Larger scale experiments with amounts up to 40 kg of fertilizer material were performed in a concrete mixer. The samples were stored under several conditions, dependent on the type of samples: • Bagged at room temperature (18-25° C.) • Bagged at 40° C. • Open to air at room temperature (18-25° C.) […]

Structure (SMILES): O=S(=O)([O-])[O-].[Mg+2] [MgSO4 99.999%]
- pH [1]: 6.1

Structure (SMILES): O=S(=O)([O-])[O-].[Ca+2] [CaSO4]
- Ammonia release [2]: no ammonia release

Structure (SMILES): [O]=[Mg] [MgO, magnesium oxide, reference compound]
- Ammonia release [2]: producing ammonia
- Stability of nBTPT (stabilizing effect) ([3]; YaraVera Amidas with 462 ppm nBTPT, MgSO4/MgO combinations (FIG. 4)): more effective than CaO

Structure (SMILES): O=S(=O)([O-])[O-].[Na+].[Na+] [Na2SO4, reference compound]
- Stability of nBTPT (stabilizing effect) ([3]; YaraVera Amidas with 462 ppm nBTPT, open plastic containers at room temperature for 21 days (FIG. 3)): negative effect on the stability of nBTPT

Structure (SMILES): O=S(=O)([O-])[O-].[Mg+2] [MgSO4 99.5%]
- pH [1]: 8.5

Structure (SMILES): [O]=[Ca] [CaO, calcium oxide]
- Ammonia release [2]: producing ammonia

Structure (SMILES): O=S(=O)([O-])[O-].[Mg+2] [MgSO4, magnesium sulphate]
- Ammonia release [2]: no ammonia release; also recorded: no ammonia is generated
- Stability of nBTPT (stabilizing effect) ([3]; UAS with 462 ppm nBTPT, open to air at room temperature 40 days (FIG. 2A) and in bags at 40° C. 8 days (FIG. 2B)): comparable with the effect of the prior art compound (CaO)
- Stabilizing effect ([3]; more than 1 weight % magnesium sulphate in the composition): did not produce a proportionally better stabilizing effect
